Patent US20260035643A1, “PHYSIOLOGIC AIRWAY MUCOSA AND PARENCHYMA BIOREACTOR AND EX VIVO WHOLE LUNG MODEL OF CYSTIC FIBROSIS FOR DISEASE MODELING AND THERAPEUTIC SCREENING” (The Trustees of Columbia University in the City of New York, priority 2023, published 2026)

Columns and labels:
[1] = test system: tight junctions (TJs) of the airway epithelium; conditions: rat trachea lumen, 10 mM EDTA for 30 min, vs native
From the text: Quantification of airway epithelium integrity via bioimpedance measurement: To investigate the biophysical integrity of the airway epithelium nondestructively (FIG. 16), we created a platform that allowed quantification of the bioelectrical impedance (bioimpedance) of the airway tissue (FIG. 16A-B). This platform utilizes four electrode probes to measure the electrical properties of the tissue (FIG. 16C). During measurements, alternating electrical current (AC) at various frequencies (20 Hz-135 kHz) and 100 μA of magnitude were injected into the tissue using two current carrying electrodes (CC1 and CC2), while two voltage pick-up electrodes (PU1 and PU2) measured the potential distribution (FIG. 16C). The data were analyzed using the Cole model that describes the biological tissue as a combination of a resistor (R) and a constant phase element (CPE) (FIG. 16D, i).

[2] = test system: human lungs; test: Xenogeneic cross-circulation support of human lungs with porcine host; conditions: added to the immunosuppressive therapy, human lungs on xenogeneic cross-circulation
From the text: Preliminary Results: We support human lungs utilizing EVLP and a xenogeneic cross-circulation platform. […] With the addition of cobra venom factor to the immunosuppressive therapy, the risk of acute rejection was mitigated.

Row | Compound | bioimpedance of treated airway tissue [1] | risk of acute rejection [2]
1 | O=C(O)CN(CCN(CC(=O)O)CC(=O)O)CC(=O)O [EDTA, ethylenediaminetetraacetic acid] | reduced impedance | 
2 | cobra venom factor |  | mitigated
